Data on 52 compounds can be found in patent US12281102B2, “Inhibitors of APOL1 and methods of using same” (Vertex Pharmaceuticals Incorporated, priority 2020, dated 2025).

Broadly, the IC50 is the concentration at which inhibition is half-maximal.

Where two headings read alike, the source gives them in different places.

The target of the assay is T1, G1 APOL1 (Homo sapiens, UniProt O14791, I384M/S342G).
T1 construct: expressed in transfected cells
T1 sequence (O14791 28-398 S342G/I384M): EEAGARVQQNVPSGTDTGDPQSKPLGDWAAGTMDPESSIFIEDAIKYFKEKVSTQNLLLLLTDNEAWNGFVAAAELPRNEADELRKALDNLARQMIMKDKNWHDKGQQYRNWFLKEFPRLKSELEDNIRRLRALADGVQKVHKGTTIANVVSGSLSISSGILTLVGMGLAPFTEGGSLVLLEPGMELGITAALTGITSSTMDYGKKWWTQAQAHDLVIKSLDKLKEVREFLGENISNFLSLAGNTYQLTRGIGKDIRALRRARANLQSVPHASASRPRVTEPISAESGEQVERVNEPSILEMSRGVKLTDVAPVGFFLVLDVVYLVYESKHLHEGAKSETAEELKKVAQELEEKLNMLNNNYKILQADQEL
Briefly: Acute APOL1 Thallium Assay with inducible stable clones of HEK 293 cells. In kind it is cell-based. To be noted: HEK 293 T-Rex inducible stable clone expressing G1 APOL1. In outline:
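A tetracycline-inducible HEK293 T-Rex clone (G1 DC3.25) expressing G1 APOL1 was plated at 26,000 cells/well, with tetracycline added at plating to induce expression. Cells were loaded with an AM-ester thallium-sensitive dye and stimulated with Tl+. Pore activity was read as the FLIPR Tetra fluorescence increase from Tl+ influx.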

The mark [1] stands for this setting: read-out: Thallium Assay (IC50).

Regarding `CS(=O)(=O)NCC(=O)N[C@H]1C[C@H](c2c(-c3ccc(F)cc3)[nH]c3c(F)cc(F)cc32)C1` [Compound 107], the IC50 under setting [1] is > 1 µM.

For the compound `O=C(CCN1CCCC1)NC[C@H]1C[C@@H](c2c(-c3ccc(F)cc3)[nH]c3c(F)cc(F)cc32)C1` [Compound 296], the IC50 under setting [1] was > 1 µM.

In the case of `O=C(CCO)N[C@H]1C[C@H](c2c(-c3ccc(F)cc3)[nH]c3c(F)cc(F)cc32)C1` [Compound 95], the IC50 under setting [1] is < 0.25 µM.

Take `N#CCC(=O)NC[C@H]1C[C@@H](c2c(-c3ccc(F)cc3)[nH]c3c(F)cc(F)cc32)C1` [Compound 230]: the IC50 under setting [1] was > 1 µM.

Take `O=C(CC1COC1)N[C@H]1C[C@H](c2c(-c3ccc(F)cc3)[nH]c3c(F)cc(F)cc32)C1` [Compound 138]: the IC50 under setting [1] was > 1 µM.

As for `CC(C(=O)N[C@H]1C[C@@H](c2c(-c3ccc(F)cc3)[nH]c3c(F)cc(F)cc32)C1)N(C)C` (mixture of isomers) [Compound 77], the IC50 under setting [1] is > 1 µM.

In the case of `CN(CC(O)CO)S(=O)(=O)NC[C@H]1C[C@H](c2c(-c3ccc(F)cc3)[nH]c3c(F)cc(F)cc32)C1` (stereo partly shown) [Compound 361], the IC50 under setting [1] is > 1 µM.

For the compound `OCC1(NCC2CC(c3c(-c4ccc(F)cc4)[nH]c4c(F)cc(F)cc34)C2)COC1` (stereo not shown) [Compound 390], the IC50 under setting [1] is > 1 µM.

With `NC(=O)CC(=O)N[C@H]1C[C@H](c2c(-c3ccc(F)cc3)[nH]c3c(F)cc(F)cc32)C1` [Compound 447, N′-[3-[5,7-difluoro-2-(4-fluorophenyl)-1H-indol-3-yl]cyclobutyl]propanediamide], the IC50 under setting [1] was 0.25 to 1 µM.

For the compound `CCCS(=O)(=O)N[C@H]1C[C@@H](c2c(-c3ccc(F)cc3)[nH]c3c(F)cc(F)cc32)C1` [Compound 79, N-((1s,3s)-3-(5,7-difluoro-2-(4-fluorophenyl)-1H-indol-3-yl)cyclobutyl)propane-1-sulfonamide], the half-maximal inhibitory concentration (IC50) under setting [1] was > 1 µM.

Regarding `OCCCNCC1CC(c2c(-c3ccc(F)cc3)[nH]c3c(F)cc(F)cc23)C1` (stereo not shown) [Compound 393], the IC50 under setting [1] was > 1 µM.

In the case of `CS(=O)(=O)CCC(=O)NC[C@H]1C[C@@H](c2c(-c3ccc(F)cc3)[nH]c3c(F)cc(F)cc32)C1` [Compound 262], the IC50 under setting [1] is > 1 µM.

Take `NS(=O)(=O)CCC(=O)N[C@H]1C[C@H](c2c(-c3ccc(F)cc3)[nH]c3c(F)cc(F)cc32)C1` [Compound 116]: the IC50 under setting [1] was 0.25 to 1 µM.

Turning to `CC(CC(=O)N[C@H]1C[C@@H](c2c(-c3ccc(F)cc3)[nH]c3c(F)cc(F)cc32)C1)N1CCOCC1` (mixture of isomers) [Compound 36], under setting [1], the IC50 was > 1 µM.

In the case of `COCCC(=O)N[C@H]1C[C@H](c2c(-c3ccc(F)cc3)[nH]c3c(F)cc(F)cc32)C1` [Compound 125], the IC50 under setting [1] is < 0.25 µM.

Regarding `NCC1(F)CC(c2c(-c3ccc(F)cc3)[nH]c3c(F)cc(F)cc23)C1` (stereo not shown) [Compound 428, [3-[5,7-difluoro-2-(4-fluorophenyl)-1H-indol-3-yl]-1-fluoro-cyclobutyl]methanamine], the IC50 under setting [1] lay in the range of 0.25 to 1 µM.

As to `O=C(NC[C@H]1C[C@H](c2c(-c3ccc(F)cc3)[nH]c3c(F)cc(F)cc32)C1)c1cn[nH]c1` [Compound 298], under setting [1], the IC50 was > 1 µM.

Turning to `O=C(CC1CC(F)(F)C1)NC[C@H]1C[C@@H](c2c(-c3ccc(F)cc3)[nH]c3c(F)cc(F)cc32)C1` [Compound 313], the IC50 under setting [1] is > 1 µM.

Take `Fc1ccc(-c2[nH]c3c(F)cc(F)cc3c2C2CC(CNC3CCOC3)C2)cc1` (stereo not shown) [Compound 396]: the IC50 under setting [1] is > 1 µM.

`O=S(=O)(N[C@H]1C[C@@H](c2c(-c3ccc(F)cc3)[nH]c3c(F)cc(F)cc32)C1)c1c[nH]cn1` [Compound 80]: under setting [1], the IC50 was > 1 µM.

For the compound `CCS(=O)(=O)NCC(=O)N[C@H]1C[C@H](c2c(-c3ccc(F)cc3)[nH]c3c(F)cc(F)cc32)C1` [Compound 108], the IC50 under setting [1] was > 1 µM.

On to `O=C(NC[C@H]1C[C@@H](c2c(-c3ccc(F)cc3)[nH]c3c(F)cc(F)cc32)C1)C(F)F` [Compound 219], for which, under setting [1], the IC50 is 0.25 to 1 µM.

With `CN1CCCC(CC(=O)NC[C@H]2C[C@@H](c3c(-c4ccc(F)cc4)[nH]c4c(F)cc(F)cc43)C2)C1` (stereo partly shown) [Compound 315], the IC50 under setting [1] is > 1 µM.

For the compound `N[C@H](CO)C(=O)NC[C@H]1C[C@H](c2c(-c3ccc(F)cc3)[nH]c3c(F)cc(F)cc32)C1` [Compound 201], the IC50 under setting [1] was < 0.25 µM.

With `CCC(C)S(=O)(=O)N[C@H]1C[C@H](c2c(-c3ccc(F)cc3)[nH]c3c(F)cc(F)cc32)C1` (stereo partly shown) [Compound 152], the IC50 under setting [1] was > 1 µM.

Take `O=C1NCCC1C(=O)NC1CC(Cc2c(-c3ccc(F)cc3)[nH]c3c(F)cc(F)cc23)C1` (stereo not shown) [Compound 163]: the IC50 under setting [1] was > 1 µM.

Take `O=S(=O)(NC[C@H]1C[C@H](c2c(-c3ccc(F)cc3)[nH]c3c(F)cc(F)cc32)C1)NC(CO)CF` (stereo partly shown) [Compound 346]: the IC50 under setting [1] was 0.25 to 1 µM.

Regarding `O=C(N[C@H]1C[C@H](c2c(-c3ccc(F)cc3)[nH]c3c(F)cc(F)cc32)C1)C1(CO)CC1` [Compound 142], the IC50 under setting [1] is < 0.25 µM.

`CN(C)CC(=O)N[C@H]1C[C@H](c2c(-c3ccc(F)cc3)[nH]c3c(F)cc(F)cc32)C1` [Compound 91]: the IC50 under setting [1] is > 1 µM.

On to `CC(=O)NC1CCC(c2c(-c3ccc(F)cc3)[nH]c3c(F)cc(F)cc23)CC1` (stereo not shown) [Compound 435, N-(4-(5,7-difluoro-2-(4-fluorophenyl)-1H-indol-3-yl)cyclohexyl)acetamide], for which the IC50 under setting [1] is > 1 µM.

Take `O=C(CC(=O)N1CCOCC1)N[C@H]1C[C@H](c2c(-c3ccc(F)cc3)[nH]c3c(F)cc(F)cc32)C1` [Compound 120]: the IC50 under setting [1] was > 1 µM.

As to `CC1(C(=O)NC[C@H]2C[C@@H](c3c(-c4ccc(F)cc4)[nH]c4c(F)cc(F)cc43)C2)CC(=O)C1` [Compound 284], the IC50 under setting [1] is > 1 µM.

As to `C[C@H](O)C(=O)N1CC(Cc2c(-c3ccc(F)cc3)[nH]c3c(F)cc(F)cc23)C1` [Compound 438], under setting [1], the IC50 is < 0.25 µM.

For the compound `OC[C@H]1C[C@H](c2c(-c3ccc(F)cc3)[nH]c3c(F)cc(F)cc32)C1` [Compound 425, [3-[5,7-difluoro-2-(4-fluorophenyl)-1H-indol-3-yl]cyclobutyl]methanol], the IC50 under setting [1] was < 0.25 µM.

As to `O=C1CCC(C(=O)NC[C@H]2C[C@@H](c3c(-c4ccc(F)cc4)[nH]c4c(F)cc(F)cc43)C2)CN1` (stereo partly shown) [Compound 328], under setting [1], the IC50 is > 1 µM.

In the case of `O=C(N[C@H]1C[C@H](c2c(-c3ccc(F)cc3)[nH]c3c(F)cc(F)cc32)C1)C1(O)CC1` [Compound 135], the IC50 under setting [1] is < 0.25 µM.

Turning to `NCC(=O)NC[C@H]1C[C@H](c2c(-c3ccc(F)cc3)[nH]c3c(F)cc(F)cc32)C1` [Compound 191], under setting [1], the IC50 is < 0.25 µM.

As to `CN1CCC(CC(=O)NC[C@H]2C[C@@H](c3c(-c4ccc(F)cc4)[nH]c4c(F)cc(F)cc43)C2)C1` (stereo partly shown) [Compound 260], under setting [1], the IC50 is > 1 µM.

Turning to `CC1(CO)CCN1S(=O)(=O)NC[C@H]1C[C@H](c2c(-c3ccc(F)cc3)[nH]c3c(F)cc(F)cc32)C1` (mixture of isomers) [Compound 364], the IC50 under setting [1] was > 1 µM.

As for `COCCC(=O)NC[C@H]1C[C@@H](c2c(-c3ccc(F)cc3)[nH]c3c(F)cc(F)cc32)C1` [Compound 209], the IC50 under setting [1] fell in the range of 0.25 to 1 µM.

For the compound `CC(C)(C)OC(=O)N1CCC[C@@H]1C(=O)NC[C@H]1C[C@H](c2c(-c3ccc(F)cc3)[nH]c3c(F)cc(F)cc32)C1` [Compound 279], the IC50 (Thallium Assay (IC50)) was > 1 µM.

Regarding `CN1CCC(CC(=O)N[C@H]2C[C@H](c3c(-c4ccc(F)cc4)[nH]c4c(F)cc(F)cc43)C2)CC1` [Compound 117], the IC50 under setting [1] is > 1 µM.

For the compound `N[C@H]1C[C@@H](Cc2c(-c3ccc(F)cc3)[nH]c3c(F)cc(F)cc23)C1` [Compound 158, cis-3-[[5,7-difluoro-2-(4-fluorophenyl)-1H-indol-3-yl]methyl]cyclobutanamine], the IC50 under setting [1] was < 0.25 µM.

With `CN(C)S(=O)(=O)NC[C@H]1C[C@H](c2c(-c3ccc(F)cc3)[nH]c3c(F)cc(F)cc32)C1` [Compound 370, 3-[3-[(dimethylsulfamoylamino)methyl]cyclobutyl]-5,7-difluoro-2-(4-fluorophenyl)-1H-indole], the IC50 under setting [1] was > 1 µM.

`C[C@@H](O)CNS(=O)(=O)NC[C@H]1C[C@H](c2c(-c3ccc(F)cc3)[nH]c3c(F)cc(F)cc32)C1` [Compound 351]: the IC50 under setting [1] is > 1 µM.

For `O=C(Cc1ccncn1)NC[C@H]1C[C@H](c2c(-c3ccc(F)cc3)[nH]c3c(F)cc(F)cc32)C1` [Compound 251], the IC50 under setting [1] was > 1 µM.

Turning to `NC1CC(c2c(-c3ccc(OC(F)(F)F)cc3)[nH]c3c(F)cc(F)cc23)C1` (stereo not shown) [Compound 8, 3-[5,7-difluoro-2-[4-(trifluoromethoxy)phenyl]-1H-indol-3-yl]cyclobutanamine], the IC50 under setting [1] lay within 0.25 to 1 µM.

Take `CN(C)C(=O)CCC(=O)N[C@H]1C[C@@H](c2c(-c3ccc(F)cc3)[nH]c3c(F)cc(F)cc32)C1` [Compound 60]: the IC50 under setting [1] is > 1 µM.

Take `O=C(Cn1cnnc1)N[C@H]1C[C@@H](c2c(-c3ccc(F)cc3)[nH]c3c(F)cc(F)cc32)C1` [Compound 33]: the IC50 under setting [1] is > 1 µM.

Regarding `CC(C)(C)OC(=O)N1CC[C@@H]1C(=O)NC[C@H]1C[C@H](c2c(-c3ccc(F)cc3)[nH]c3c(F)cc(F)cc32)C1` [Compound 310], the IC50 (Thallium Assay (IC50)) is > 1 µM.

With `NCC(=O)N[C@H]1C[C@H](c2c(-c3ccc(F)cc3)[nH]c3c(F)cc(F)cc32)C1` [Compound 137], the IC50 (Thallium Assay (IC50)) is < 0.25 µM.

As to `O=S(=O)(NC[C@H]1C[C@H](c2c(-c3ccc(F)cc3)[nH]c3c(F)cc(F)cc32)C1)N[C@@H]1CCC[C@H]1O` [Compound 348], under setting [1], the IC50 is > 1 µM.
